Consider eleven compounds from patent US9290505B2, “Substituted imidazo[1,2-a]pyrazines as Syk inhibitors” (Gilead Sciences, Inc., priority 2013, dated 2016).

What is called solubility is how much of the substance goes into solution per volume. Read a high solubility as a readily soluble substance. In general, IC50 refers to the concentration that inhibits the measured activity by half. The low end stands for higher potency, the high end for lower potency.

In brackets after ≈: the same amount, converted by molar mass.

The nature of data set [1]: Kinetic solubility in phosphate buffer at pH 7.4. Format: physicochemical. Here is the method: The kinetic solubility of compounds in phosphate buffer at pH 7.4 was assessed. The compounds to be tested were dissolved in dimethylsulfoxide at a 10 mM concentration. Stock samples were diluted, 3 μl with 297 μl of the phosphate buffer at pH 7.4 (DulBecco's phosphate buffered saline (Sigma-Aldrich D8662), overall molarity is 0.149M and pH 7.43). The samples were then incubated for 24 hours at 37° C. with shaking, the centrifuged and an aliquot taken and tested relative to a known standard concentration of 0.1 mM.

A further data set concerns the target Syk (Homo sapiens (Human), UniProt P43405). Description: High Throughput Syk Biochemical Assay (KinEASE TR-FRET). The protocol: Syk activity was measured using KinEASE (Cisbio), a time-resolved fluorescence resonance energy transfer (TR-FRET) immunoassay. In this assay, Syk-catalyzes the phosphorylation of a XL665-labeled peptide substrate. Europium conjugated phospho-tyrosine specific antibody binds the resulting phosphorylated peptide. Formation of phosphorylated peptide is quantified by TR-FRET with Europium as the donor and XL665 the acceptor in a 2-step endpoint assay. In brief, test compounds serially diluted in DMSO were delivered into Corning white, low volume, non-binding 384 well plates using the Echo 550 acoustic liquid dispenser (Labcyte®). Syk enzyme and substrates were dispensed into assay plates using a Multi-Flo (Bio-Tek Instruments).
In general terms: In TR-FRET formats the signal depends on donor and acceptor labels being close together.

The next data set concerns human hepatocytes. Briefly: Human Hepatocyte Stability Assay. Format: in vitro ADME. To be noted: predicted hepatocyte clearance, 1 μM compound. Here is the method: The human […] stability of the compounds as predicted hepatocyte clearance in L/hr/kg was assessed. Compounds to be tested were diluted to 200 μM (4 μl of 10 mM DMSO stock into 196 μl ACN:H2O (50:50). Propranolol was used as a positive control, and buffer only without hepatocytes as 0% control. These were further diluted 4 μl with 891 μl KHB buffer (InVitroGRO catalog number Z99074) to provide 2× dosing solution. To each well of 24 well plate, 250 μl of the 2× dosing solution was added to each well with 250 μl of hepatocytes cells (1×10^6 viable cells/ml per well) or KHB for control samples to achieve a final compound concentration of 1 μM during incubation. The final solvent concentration was 0.01% DMSO and 0.25% ACN. The culture plate was placed on a rocker and incubated at 37° C., 5% CO2. Samples were collected at time 0, 1, 3, and 6 hours. The loss of parent compound was determined using LC-MS methods against a standard curve.

Where [2] appears, read: phosphate buffer, 37 °C, aqueous buffer, kinetic from dmso stock, comparison table, kinetic solubility pH 7.4.
Setting [3] is: comparison table with known Syk inhibitors.
[4] abbreviates: aqueous buffer, kinetic from dmso stock, kinetic solubility, phosphate buffer pH 7.4, 24 hours at 37° C.
Setting [5] is: comparison table, kinetic solubility pH 7.4.

In data set [1] (setting [2]), `Cc1ncc(-c2cn3ccnc3c(Nc3ccc(N4CCOCC4)cc3)n2)cc1N` [6-(5-amino-6-methylpyridin-3-yl)-N-(4-morpholinophenyl)imidazo[1,2-a]pyrazin-8-amine, reference compound] gave a solubility at 24 h of 5 µM (≈ 2.01 µg/mL). This compound yielded an IC50 against Syk (setting [3]) of 0.016 µM.

For the compound `Nc1cncc(-c2cn3ccnc3c(Nc3ccc(N4CCN(C5COC5)CC4)cc3)n2)n1` [Ex.-2, 6-(6-aminopyrazin-2-yl)-N-(4-(4-(oxetan-3-yl)piperazin-1-yl)phenyl)imidazo[1,2-a]pyrazin-8-amine], the solubility at 24 h in data set [1] (setting [4]) and in data set [1] (setting [5]) was 95 µM (≈ 42.1 µg/mL) throughout. In addition, in the data set with human hepatocytes, the “Hheps CL” value is 0.055 L/h/kg.

As for `Cc1ncc(-c2cn3ccnc3c(Nc3ccc(N4CCN(C5COC5)CC4)c(OCCO)c3)n2)nc1N` [Ex.-7, 2-(5-((6-(6-amino-5-methylpyrazin-2-yl)imidazo[1,2-a]pyrazin-8-yl)amino)-2-(4-(oxetan-3-yl)piperazin-1-yl)phenoxy)ethanol], the “Hheps CL” value in the data set with human hepatocytes was 0.05 L/h/kg. For the same compound, the IC50 against Syk (20 μM ATP, 0.015 nM Syk) stood at 0.0087 µM; against Syk (setting [3]), 0.0087 µM.

Turning to `Nc1cncc(-c2cn3ccnc3c(Nc3ccc(N4CCOCC4)cc3)n2)c1` [6-(5-aminopyridin-3-yl)-N-(4-morpholinophenyl)imidazo[1,2-a]pyrazin-8-amine, reference compound], in data set [1] (setting [2]), the solubility at 24 h was 5 µM (≈ 1.94 µg/mL). On Syk (setting [3]), this compound showed an IC50 of 0.031 µM.

Turning to `Nc1cncc(-c2cn3ccnc3c(Nc3ccc(N4CCN(C5COC5)CC4)c(OCCO)c3)n2)n1` [Ex.-5, 2-(5-((6-(6-aminopyrazin-2-yl)imidazo[1,2-a]pyrazin-8-yl)amino)-2-(4-(oxetan-3-yl)piperazin-1-yl)phenoxy)ethanol], the solubility at 24 h in data set [1] (setting [4]) and in data set [1] (setting [5]) was 97 µM (≈ 48.8 µg/mL) each time. The “Hheps CL” value in the data set on human hepatocytes is 0.07 L/h/kg. Also, the IC50 was 0.0122 µM against Syk (20 μM ATP, 0.015 nM Syk) and 0.0122 µM on Syk (setting [3]).

In turn, `COc1ccc(Nc2nc(-c3ccc(N)nc3)cn3ccnc23)cc1OC` [6-(6-aminopyridin-3-yl)-N-(3,4-dimethoxyphenyl)imidazo[1,2-a]pyrazin-8-amine, reference compound] came in with a solubility at 24 h in data set [1] (setting [2]) of 10 µM (≈ 3.62 µg/mL). Besides, the IC50 against Syk (setting [3]) is 0.053 µM.

For `Cc1c(-c2cncc(N)n2)nc(Nc2ccc(N3CCN(C4COC4)CC3)cc2)c2nccn12` [Ex.-4, 6-(6-aminopyrazin-2-yl)-5-methyl-N-(4-(4-(oxetan-3-yl)piperazin-1-yl)phenyl)imidazo[1,2-a]pyrazin-8-amine], the solubility at 24 h in data set [1] (setting [4]) and in data set [1] (setting [5]) was 100 µM (≈ 45.8 µg/mL) in each case. Also, the “Hheps CL” value in the data set with human hepatocytes was 0.08 L/h/kg. The IC50 at Syk (20 μM ATP, 0.015 nM Syk) stood at 0.044 µM; against Syk (setting [3]), 0.044 µM.

On to `Cc1ncc(-c2cn3ccnc3c(Nc3ccc(N4CCN(C5COC5)CC4)cc3)n2)nc1N` [Ex.-1, 6-(6-amino-5-methylpyrazin-2-yl)-N-(4-(4-(oxetan-3-yl)piperazin-1-yl)phenyl)imidazo[1,2-a]pyrazin-8-amine], for which the solubility at 24 h in data set [1] (setting [4]) and in data set [1] (setting [5]) was 95 µM (≈ 43.5 µg/mL) each time. Also, the “Hheps CL” value in the data set on human hepatocytes was 0.12 L/h/kg. Moreover, the IC50 was 0.0062 µM against Syk (20 μM ATP, 0.015 nM Syk) and 0.0062 µM on Syk (setting [3]).

With `Nc1cncc(-c2cn3ccnc3c(Nc3ccc(N4CCN(CC(CO)CO)CC4)cc3)n2)n1` [Ex.-6, 2-((4-(4-((6-(6-aminopyrazin-2-yl)imidazo[1,2-a]pyrazin-8-yl)amino)phenyl)piperazin-1-yl)methyl)propane-1,3-diol], the solubility at 24 h in data set [1] (setting [4]) and in data set [1] (setting [5]) was 99 µM (≈ 47.1 µg/mL) in each case. Further, the “Hheps CL” value in the data set with human hepatocytes is 0.08 L/h/kg. Also, the IC50 was 0.0145 µM against Syk (20 μM ATP, 0.015 nM Syk) and 0.0145 µM on Syk (setting [3]).

With `Nc1cncc(-c2cn3ccnc3c(Nc3ccc(N4CCO[C@@H](CO)C4)cc3)n2)n1` [Ex.-3, (R)-(4-(4-((6-(6-aminopyrazin-2-yl)imidazo[1,2-a]pyrazin-8-yl)amino)phenyl)morpholin-2-yl)methanol], the solubility at 24 h in data set [1] (setting [4]) and in data set [1] (setting [5]) was 91 µM (≈ 38.1 µg/mL) in each case. Moreover, in the data set on human hepatocytes, the “Hheps CL” value is 0.09 L/h/kg. The IC50 on Syk (20 μM ATP, 0.015 nM Syk) was 0.0133 µM; against Syk (setting [3]) it was 0.0133 µM.

Regarding `COc1ccc(Nc2nc(-c3cccc(N)c3)cn3ccnc23)cc1OC` [6-(3-aminophenyl)-N-(3,4-dimethoxyphenyl)imidazo[1,2-a]pyrazin-8-amine, reference compound], the concentration in solution in data set [1] (setting [2]) (solubility at 24 h) came to 3 µM (≈ 1.08 µg/mL). This compound showed an IC50 on Syk (setting [3]) of 0.188 µM.
